Reference: paper PMC4671658, “Release of 50 new, drug-like compounds and their computational target predictions for open source anti-tubercular drug discovery” (PLoS ONE, 2015)
In brackets after ≈: the same amount, converted by molar mass.

Tests used:
[1] = test system: non-replicating M. tuberculosis H37Rv; assay: Activity against non-replicating Mycobacterium tuberculosis; conditions: non-replicating conditions; for ACT In NR % inhibition: active/inactive call, experiments with inh > 50%
HepG2 cells = conditions: HepG2, 48 h
M. bovis BCG Pasteur = assay: microbe, parasite or virus in culture; assay type: cell-based, Mycobacterium bovis BCG; conditions: for IC50: Mycobacterium tuberculosis variant bovis BCG, BCG, read-out: BCG pIC50 (converted)
M. tuberculosis H37Rv = assay: M. tuberculosis inhibition assay (MABA, resazurin) MIC; assay type: cell-based; conditions: Mycobacterium tuberculosis
physchem [2] = conditions: pH 7.4
physchem [3] = conditions: pH 7.4, kinetic from dmso stock
[4] = test system: M. tuberculosis H37Rv in infected THP1 cells; assay: Intracellular assay (luciferase H37Rv in THP1 cells); assay type: cell-based, Mycobacterium tuberculosis; conditions: for IC50: Mycobacterium tuberculosis, H37RV, THP-1, 120 h, read-out: ACT In Intracellular pX50 (converted)

SMILES	ACT In NR pXC50 [1]	ACT In NR % inhibition [1]	TOX50 HepG2 (HepG2 cells) [µM]	IC50 (M. bovis BCG Pasteur) [nM]	MIC (M. tuberculosis H37Rv) [µM]	chromatographic logD (physchem [2])	solubility (physchem [3]) [µg/mL]	IC50 [4] [nM]	Mtb specific (inactive against M. bovis BCG) (M. bovis BCG Pasteur; hit in Mtb screen, not in BCG screen)	Inhibition of intracellular growth (active = pIC50 above 5) ([4]; THP1 cells, the one compound of 26 tested that was not active)
COc1ccc2nccc(NC(=O)C3CCN(CCc4ccc(Cl)cc4)CC3)c2n1 [TCMDC-143649]	5,1	ACTIVE 7 expts out of 10 with inh > 50%	> 100	5010	0.2 (≈ 0.085 µg/mL)	5.49	4 (≈ 9.41 µM)	–	–	–
O=C(NCc1ccco1)N1CCN(Cc2ccc3c(c2)OCO3)CC1 [TCMDC-143650]	–	INACTIVE	> 100	1260	1.25 (≈ 0.429 µg/mL)	3.48	86 (≈ 250 µM)	–	–	–
CCCC/C=C/c1cc2ccncc2cc1OC1CCNCC1 [TCMDC-143651]	–	INACTIVE	16	2510	1.6 (≈ 0.497 µg/mL)	3.61	36 (≈ 116 µM)	1260	–	–
O=C(NCc1ccco1)N1CCN(Cc2ccc3c(c2)CCO3)CC1 [TCMDC-143652]	–	INACTIVE	> 100	2510	2 (≈ 0.683 µg/mL)	3.47	88 (≈ 258 µM)	–	–	–
O=C(NCc1ccco1)N1CCN(Cc2ccc(Cl)s2)CC1 [TCMDC-143653]	–	INACTIVE	> 100	1260	2 (≈ 0.68 µg/mL)	4.82	98 (≈ 288 µM)	2510	–	–
Nc1ccccc1Nc1ccc(Cl)cc1 [TCMDC-143654]	4,5	ACTIVE 8 expts out of 11 with inh > 50%	79	100	2 (≈ 0.437 µg/mL)	5.76	59 (≈ 270 µM)	15.8	–	–
NCC(c1cccs1)S(=O)(=O)c1ccccc1 (centres unmarked) [TCMDC-143655]	–	INACTIVE	32	5010	2 (≈ 0.535 µg/mL)	2.5	134 (≈ 501 µM)	–	–	–
NS(=O)(=O)c1ccc(Nc2cnc3ccccc3n2)cc1 [TCMDC-143656]	–	INACTIVE	> 100	6310	2 (≈ 0.601 µg/mL)	1.07	112 (≈ 373 µM)	–	–	–
CNc1nc(SC)nnc1-c1cccc(Cl)c1Cl [TCMDC-143661]	–	INACTIVE	> 100	12600	2.5 (≈ 0.753 µg/mL)	4.94	85 (≈ 282 µM)	794	Mtb specific	–
Cc1ccc2oc(SCC(=O)Nc3nccs3)nc2n1 [TCMDC-143682]	–	–	–	–	–	–	–	–	–	all but one (TCMDC-143682) were active
